In ChEMBL document CHEMBL1909046, “DrugMatrix in vitro pharmacology data”:

Columns and labels:
[1] = biological target: T1, Muscarinic acetylcholine receptor M5 (Homo sapiens, UniProt P08912); assay type: cell membranes, CHO-K1, Membrane; conditions: cho-k1; note: in other assays of this panel Not Active means under 50% inhibition at 10 µM
T1 sequence (P08912 whole entry): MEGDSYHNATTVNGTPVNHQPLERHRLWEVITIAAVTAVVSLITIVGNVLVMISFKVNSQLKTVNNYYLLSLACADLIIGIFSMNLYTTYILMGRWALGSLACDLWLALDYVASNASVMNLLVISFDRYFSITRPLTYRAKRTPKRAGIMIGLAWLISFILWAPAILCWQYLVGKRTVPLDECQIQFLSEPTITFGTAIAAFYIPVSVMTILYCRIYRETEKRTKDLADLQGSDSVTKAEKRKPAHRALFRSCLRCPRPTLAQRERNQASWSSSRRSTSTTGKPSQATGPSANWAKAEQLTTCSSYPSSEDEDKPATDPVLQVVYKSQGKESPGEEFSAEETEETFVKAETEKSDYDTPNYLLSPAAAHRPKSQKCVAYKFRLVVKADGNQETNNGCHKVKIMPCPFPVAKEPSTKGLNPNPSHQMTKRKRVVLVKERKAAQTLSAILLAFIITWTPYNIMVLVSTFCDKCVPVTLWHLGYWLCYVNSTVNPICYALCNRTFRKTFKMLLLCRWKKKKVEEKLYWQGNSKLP

[2] = biological target: T2, Neuropeptide Y receptor type 2 (Homo sapiens, UniProt P49146); assay type: cell membranes, Membrane; conditions: kan-ts; note: in other assays of this panel Not Active means under 50% inhibition at 10 µM
T2 sequence (P49146 whole entry): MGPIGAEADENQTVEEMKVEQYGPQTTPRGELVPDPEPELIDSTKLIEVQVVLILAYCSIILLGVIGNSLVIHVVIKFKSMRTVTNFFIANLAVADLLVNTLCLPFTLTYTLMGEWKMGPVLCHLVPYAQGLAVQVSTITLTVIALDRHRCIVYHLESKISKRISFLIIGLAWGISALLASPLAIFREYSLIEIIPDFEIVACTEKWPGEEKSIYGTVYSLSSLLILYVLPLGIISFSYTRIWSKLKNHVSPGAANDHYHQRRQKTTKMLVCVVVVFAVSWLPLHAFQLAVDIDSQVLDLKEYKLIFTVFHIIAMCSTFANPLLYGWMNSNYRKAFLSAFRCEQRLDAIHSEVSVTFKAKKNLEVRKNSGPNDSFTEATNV

Melanocortin receptor 5 = Melanocortin receptor 5 (Homo sapiens, UniProt P33032); assay type: cell membranes, HEK293, Membrane; conditions: hek293; note: in other assays of this panel Not Active means under 50% inhibition at 10 µM
[3] = DRUGMATRIX: Sodium/nucleoside co-transporter radioligand binding (ligand: nitrobenzylthioinosine); assay type: cell membranes, Cavia porcellus, Dunkin-Hartley, Cerebral cortex, Membrane; conditions: Not Active = under 50% inhibition at 10 µM
Interstitial collagenase = biological target: T3, Interstitial collagenase (Homo sapiens, UniProt P03956); assay type: tissue-based, Rheumatoid synovial fibroblasts;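 note: MMP-1 enzyme inhibition assay using a peptide substrate; in other assays of this panel Not Active means under 50% inhibition at 10 µM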
T3 sequence (P03956 whole entry): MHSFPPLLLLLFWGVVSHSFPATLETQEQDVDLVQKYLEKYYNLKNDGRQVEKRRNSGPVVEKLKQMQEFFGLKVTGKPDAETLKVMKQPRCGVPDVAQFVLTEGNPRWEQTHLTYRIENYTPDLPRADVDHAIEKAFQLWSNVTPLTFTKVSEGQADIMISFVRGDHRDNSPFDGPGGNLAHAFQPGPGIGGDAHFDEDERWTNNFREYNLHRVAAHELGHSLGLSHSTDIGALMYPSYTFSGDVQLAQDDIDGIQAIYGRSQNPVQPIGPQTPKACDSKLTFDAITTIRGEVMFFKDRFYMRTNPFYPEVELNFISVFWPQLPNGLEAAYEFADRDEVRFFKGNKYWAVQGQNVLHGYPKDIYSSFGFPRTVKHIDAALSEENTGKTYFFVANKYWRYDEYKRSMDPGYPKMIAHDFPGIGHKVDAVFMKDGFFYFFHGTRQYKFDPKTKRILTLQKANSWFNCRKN

[4] = biological target: Platelet-activating factor receptor (Homo sapiens, UniProt P25105); experiment: biochemical; assay type: tissue-based; conditions: platelet; note: in other assays of this panel Not Active means under 50% inhibition at 10 µM
Cytochrome P450 2C19 = Cytochrome P450 2C19 (Homo sapiens, UniProt P33261); conditions: bti-tn-5b1-4; note: in other assays of this panel Not Active means under 50% inhibition at 10 µM
[5] = biological target: Sodium-dependent noradrenaline transporter (Homo sapiens, UniProt P23975); experiment: DRUGMATRIX: Norepinephrine Transporter radioligand binding (ligand: [125I] RTI-55); assay type: cell membranes, MDCK, Membrane; conditions: mdck; Not Active = under 50% inhibition at 10 µM
[6] = biological target: T4, Muscarinic acetylcholine receptor M4 (Homo sapiens, UniProt P08173); assay type: cell membranes, CHO-K1, Membrane; conditions: cho-k1; note: in other assays of this panel Not Active means under 50% inhibition at 10 µM
T4 sequence (P08173 whole entry): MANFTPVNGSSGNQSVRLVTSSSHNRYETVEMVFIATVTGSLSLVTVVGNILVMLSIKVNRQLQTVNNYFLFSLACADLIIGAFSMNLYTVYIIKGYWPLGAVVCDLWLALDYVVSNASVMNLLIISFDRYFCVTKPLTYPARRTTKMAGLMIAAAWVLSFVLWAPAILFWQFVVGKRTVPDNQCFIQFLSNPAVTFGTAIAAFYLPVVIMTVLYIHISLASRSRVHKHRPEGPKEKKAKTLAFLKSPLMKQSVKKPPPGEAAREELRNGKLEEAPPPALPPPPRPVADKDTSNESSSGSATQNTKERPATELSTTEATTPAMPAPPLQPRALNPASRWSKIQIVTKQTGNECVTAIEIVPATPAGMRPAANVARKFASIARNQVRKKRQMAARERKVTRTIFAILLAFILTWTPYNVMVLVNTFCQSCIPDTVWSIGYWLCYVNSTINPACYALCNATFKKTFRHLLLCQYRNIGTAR

[7] = biological target: 5-hydroxytryptamine receptor 1B (Rattus norvegicus, UniProt P28564); assay type: cell membranes, Wistar, Cerebral cortex, Membrane; note: in other assays of this panel Not Active means under 50% inhibition at 10 µM
[8] = DRUGMATRIX: Interleukin IL-1 radioligand binding (ligand: [125I] interleukin 1beta); assay type: cell membranes, Membrane; conditions: nih3t3; Not Active = under 50% inhibition at 10 µM
[9] = biological target: Beta-2 adrenergic receptor (Homo sapiens, UniProt P07550); experiment: DRUGMATRIX: Adrenergic beta2 radioligand binding (ligand: [3H] CGP-12177); assay type: cell membranes, Membrane; conditions: cho; Not Active = under 50% inhibition at 10 µM
Melanocortin receptor 4 = Melanocortin receptor 4 (Homo sapiens, UniProt P32245); assay type: cell membranes, Membrane; conditions: hek293; note: in other assays of this panel Not Active means under 50% inhibition at 10 µM
Chain of Melanocortin receptor 4 (P32245 whole entry): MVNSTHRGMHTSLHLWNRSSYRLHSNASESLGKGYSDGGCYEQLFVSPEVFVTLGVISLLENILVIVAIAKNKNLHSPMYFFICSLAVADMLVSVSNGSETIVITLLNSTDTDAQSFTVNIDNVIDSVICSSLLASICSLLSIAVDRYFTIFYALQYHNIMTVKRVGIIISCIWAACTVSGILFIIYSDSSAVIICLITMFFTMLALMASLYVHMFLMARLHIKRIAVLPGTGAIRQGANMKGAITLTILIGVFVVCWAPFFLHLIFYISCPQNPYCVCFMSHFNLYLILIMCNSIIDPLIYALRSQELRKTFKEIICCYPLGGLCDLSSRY

Chain of Beta-2 adrenergic receptor (P07550 whole entry): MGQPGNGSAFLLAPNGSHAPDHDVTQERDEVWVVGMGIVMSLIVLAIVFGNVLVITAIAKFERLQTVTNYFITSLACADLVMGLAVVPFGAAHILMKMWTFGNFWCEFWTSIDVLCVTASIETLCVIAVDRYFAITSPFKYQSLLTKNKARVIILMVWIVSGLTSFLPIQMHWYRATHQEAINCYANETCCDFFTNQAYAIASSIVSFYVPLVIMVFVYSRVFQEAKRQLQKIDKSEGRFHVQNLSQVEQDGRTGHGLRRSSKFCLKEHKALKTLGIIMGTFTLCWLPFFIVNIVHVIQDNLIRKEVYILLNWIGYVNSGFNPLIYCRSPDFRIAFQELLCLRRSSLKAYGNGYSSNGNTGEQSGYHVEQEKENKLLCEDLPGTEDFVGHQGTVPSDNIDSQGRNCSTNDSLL
Chain of Platelet-activating factor receptor (P25105 whole entry): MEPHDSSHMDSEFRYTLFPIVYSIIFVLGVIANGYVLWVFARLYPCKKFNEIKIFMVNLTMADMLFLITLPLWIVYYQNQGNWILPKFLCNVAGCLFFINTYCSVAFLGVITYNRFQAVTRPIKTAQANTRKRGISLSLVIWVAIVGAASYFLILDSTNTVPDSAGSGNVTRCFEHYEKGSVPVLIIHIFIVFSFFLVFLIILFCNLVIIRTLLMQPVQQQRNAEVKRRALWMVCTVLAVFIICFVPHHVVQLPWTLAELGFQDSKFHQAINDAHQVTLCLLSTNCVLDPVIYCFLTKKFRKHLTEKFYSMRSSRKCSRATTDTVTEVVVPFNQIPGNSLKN
Chain of Sodium-dependent noradrenaline transporter (P23975 whole entry): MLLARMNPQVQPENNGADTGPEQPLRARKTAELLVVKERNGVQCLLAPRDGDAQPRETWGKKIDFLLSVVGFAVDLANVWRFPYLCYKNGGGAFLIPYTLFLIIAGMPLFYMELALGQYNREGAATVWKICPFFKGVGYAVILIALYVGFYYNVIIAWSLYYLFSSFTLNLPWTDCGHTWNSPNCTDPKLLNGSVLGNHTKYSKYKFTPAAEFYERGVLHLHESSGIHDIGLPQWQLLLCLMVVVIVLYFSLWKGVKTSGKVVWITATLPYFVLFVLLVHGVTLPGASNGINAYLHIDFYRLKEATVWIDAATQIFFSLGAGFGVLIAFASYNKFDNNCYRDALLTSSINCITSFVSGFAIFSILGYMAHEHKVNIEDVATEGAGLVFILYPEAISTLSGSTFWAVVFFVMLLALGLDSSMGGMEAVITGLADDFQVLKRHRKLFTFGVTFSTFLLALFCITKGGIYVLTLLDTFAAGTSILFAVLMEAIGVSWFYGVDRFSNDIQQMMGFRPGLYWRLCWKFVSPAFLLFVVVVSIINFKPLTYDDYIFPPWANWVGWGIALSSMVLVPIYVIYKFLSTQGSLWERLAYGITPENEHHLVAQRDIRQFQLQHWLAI
Chain of Cytochrome P450 2C19 (P33261 whole entry): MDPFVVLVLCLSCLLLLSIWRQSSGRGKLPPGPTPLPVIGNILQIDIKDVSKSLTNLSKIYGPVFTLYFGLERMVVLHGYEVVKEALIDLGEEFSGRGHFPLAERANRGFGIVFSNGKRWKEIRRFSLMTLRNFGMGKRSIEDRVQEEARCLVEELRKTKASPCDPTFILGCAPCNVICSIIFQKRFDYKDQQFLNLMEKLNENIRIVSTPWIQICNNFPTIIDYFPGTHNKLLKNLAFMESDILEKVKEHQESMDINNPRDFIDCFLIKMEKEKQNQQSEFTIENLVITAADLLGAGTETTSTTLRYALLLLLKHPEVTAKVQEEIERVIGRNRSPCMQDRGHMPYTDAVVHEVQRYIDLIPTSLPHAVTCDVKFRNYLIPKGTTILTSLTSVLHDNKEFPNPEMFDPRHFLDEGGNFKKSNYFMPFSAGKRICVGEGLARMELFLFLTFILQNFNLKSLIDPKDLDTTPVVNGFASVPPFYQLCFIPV
Chain of Melanocortin receptor 5 (P33032 whole entry): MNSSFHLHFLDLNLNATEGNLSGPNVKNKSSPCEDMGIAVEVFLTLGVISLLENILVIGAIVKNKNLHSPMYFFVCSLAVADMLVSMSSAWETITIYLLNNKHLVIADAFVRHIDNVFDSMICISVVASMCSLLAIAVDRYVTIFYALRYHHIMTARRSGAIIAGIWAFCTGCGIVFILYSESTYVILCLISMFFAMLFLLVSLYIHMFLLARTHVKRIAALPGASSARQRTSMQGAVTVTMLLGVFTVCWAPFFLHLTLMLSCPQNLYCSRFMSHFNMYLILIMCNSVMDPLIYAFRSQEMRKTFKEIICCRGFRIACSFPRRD
Chain of 5-hydroxytryptamine receptor 1B (P28564 whole entry): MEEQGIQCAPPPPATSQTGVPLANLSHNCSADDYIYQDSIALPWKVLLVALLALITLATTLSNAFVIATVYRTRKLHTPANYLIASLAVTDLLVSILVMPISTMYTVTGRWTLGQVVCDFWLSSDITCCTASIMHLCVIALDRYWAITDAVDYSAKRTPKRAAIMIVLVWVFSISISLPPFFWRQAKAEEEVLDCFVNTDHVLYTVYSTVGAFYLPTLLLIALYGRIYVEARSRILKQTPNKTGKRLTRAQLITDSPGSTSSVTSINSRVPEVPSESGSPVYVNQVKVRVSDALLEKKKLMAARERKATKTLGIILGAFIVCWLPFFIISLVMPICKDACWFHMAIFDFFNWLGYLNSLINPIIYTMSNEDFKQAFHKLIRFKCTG

COc1ccc2cc(CC(=O)O)ccc2c1
Not Active: IC50 [1] | IC50 [2] | IC50 (Melanocortin receptor 5) | IC50 [3] | Ki [3] | IC50 (Interstitial collagenase) | IC50 [4] | IC50 (Cytochrome P450 2C19) | Ki (Cytochrome P450 2C19) | IC50 [5] | IC50 [6] | IC50 [7] | IC50 [8] | Ki [8] | IC50 [9] | IC50 (Melanocortin receptor 4)

c1ccc2c(c1)cc1ccc3cccc4ccc2c1c34
Not Active: IC50 [1] | IC50 [2] | IC50 (Melanocortin receptor 5) | IC50 [3] | Ki [3] | IC50 (Interstitial collagenase) | IC50 [4] | IC50 (Cytochrome P450 2C19) | Ki (Cytochrome P450 2C19) | IC50 [5] | IC50 [6] | IC50 [7] | IC50 [8] | Ki [8] | IC50 [9] | IC50 (Melanocortin receptor 4)

CC=CC(=O)N(CC)c1ccccc1C
Not Active: IC50 [1] | IC50 [2] | IC50 (Melanocortin receptor 5) | IC50 [3] | Ki [3] | IC50 (Interstitial collagenase) | IC50 [4] | IC50 (Cytochrome P450 2C19) | Ki (Cytochrome P450 2C19) | IC50 [5] | IC50 [6] | IC50 [7] | IC50 [8] | Ki [8] | IC50 [9] | IC50 (Melanocortin receptor 4)

C=C1C(=O)O[C@@H]2C3O[C@]3(C)CC/C=C(\C)CC[C@@H]12 (stereo partly drawn)
Not Active: IC50 [1] | IC50 [2] | IC50 (Melanocortin receptor 5) | IC50 [3] | Ki [3] | IC50 (Interstitial collagenase) | IC50 [4] | IC50 (Cytochrome P450 2C19) | Ki (Cytochrome P450 2C19) | IC50 [5] | IC50 [6] | IC50 [7] | IC50 [8] | Ki [8] | IC50 [9] | IC50 (Melanocortin receptor 4)

CC(/C=C1\SC(=S)N(CC(=O)O)C1=O)=C\c1ccccc1
Not Active: IC50 [1] | IC50 [2] | IC50 (Melanocortin receptor 5) | IC50 [3] | Ki [3] | IC50 (Interstitial collagenase) | IC50 [4] | IC50 (Cytochrome P450 2C19) | Ki (Cytochrome P450 2C19) | IC50 [5] | IC50 [6] | IC50 [7] | IC50 [8] | Ki [8] | IC50 [9] | IC50 (Melanocortin receptor 4)

COc1ccc2c(c1)c(CC(=O)OCC(=O)O)c(C)n2C(=O)c1ccc(Cl)cc1 [ACEMETACIN]
Not Active: IC50 [1] | IC50 [2] | IC50 (Melanocortin receptor 5) | IC50 [3] | Ki [3] | IC50 (Interstitial collagenase) | IC50 [4] | IC50 (Cytochrome P450 2C19) | Ki (Cytochrome P450 2C19) | IC50 [5] | IC50 [6] | IC50 [7] | IC50 [8] | Ki [8] | IC50 [9] | IC50 (Melanocortin receptor 4)

CCCSc1ccc2nc(NC(=O)OC)[nH]c2c1 [ALBENDAZOLE]
Not Active: IC50 [1] | IC50 [2] | IC50 (Melanocortin receptor 5) | IC50 [3] | Ki [3] | IC50 (Interstitial collagenase) | IC50 [4] | IC50 (Cytochrome P450 2C19) | Ki (Cytochrome P450 2C19) | IC50 [5] | IC50 [6] | IC50 [7] | IC50 [8] | Ki [8] | IC50 [9] | IC50 (Melanocortin receptor 4)

Cc1[nH]cnc1CN1CCc2c(c3ccccc3n2C)C1=O [ALOSETRON]
Not Active: IC50 [1] | IC50 [2] | IC50 (Melanocortin receptor 5) | IC50 [3] | Ki [3] | IC50 (Interstitial collagenase) | IC50 [4] | IC50 (Cytochrome P450 2C19) | Ki (Cytochrome P450 2C19) | IC50 [5] | IC50 [6] | IC50 [7] | IC50 [8] | Ki [8] | IC50 [9] | IC50 (Melanocortin receptor 4)

O=c1cc(-c2ccccc2)oc2c1ccc1ccccc12 [ALPHA-NAPHTHOFLAVONE]
Not Active: IC50 [1] | IC50 [2] | IC50 (Melanocortin receptor 5) | IC50 [3] | Ki [3] | IC50 (Interstitial collagenase) | IC50 [4] | IC50 (Cytochrome P450 2C19) | Ki (Cytochrome P450 2C19) | IC50 [5] | IC50 [6] | IC50 [7] | IC50 [8] | Ki [8] | IC50 [9] | IC50 (Melanocortin receptor 4)

C=C(C)[C@@H]1[C@H]2OC(=O)[C@@H]1[C@]1(O)C[C@H]3O[C@]34C(=O)O[C@H]2[C@]14C [PICROTOXININ]
Not Active: IC50 [1] | IC50 [2] | IC50 (Melanocortin receptor 5) | IC50 [3] | Ki [3] | IC50 (Interstitial collagenase) | IC50 [4] | IC50 [5] | IC50 [6] | IC50 [7] | IC50 [8] | Ki [8] | IC50 [9] | IC50 (Melanocortin receptor 4)
